# Measurements from PMC8380825 (Journal of molecular biology, 2021).
# Where no end group is shown, it is not given here.
# How the values were obtained:
# [1] = target: NPR-1 mutants (Caenorhabditis elegans, UniProt Q18534, D303A/D304A/E301A); test: cAMP reporter gene assay; type: cell-based, C. elegans
# [2] = target: NPR-1 mutants (Caenorhabditis elegans, UniProt Q18534, D315A); test: cAMP reporter gene assay; type: cell-based, C. elegans; conditions: NPR-1 D^7.26A mutant
# [3] = target: NPR-1 mutants (Caenorhabditis elegans, UniProt Q18534, D316A); test: cAMP reporter gene assay; type: cell-based, C. elegans; conditions: NPR-1 D^7.27A mutant
# Chain of NPR-1 mutants (Caenorhabditis elegans, UniProt Q18534, D316A) (Q18534 whole entry D316A): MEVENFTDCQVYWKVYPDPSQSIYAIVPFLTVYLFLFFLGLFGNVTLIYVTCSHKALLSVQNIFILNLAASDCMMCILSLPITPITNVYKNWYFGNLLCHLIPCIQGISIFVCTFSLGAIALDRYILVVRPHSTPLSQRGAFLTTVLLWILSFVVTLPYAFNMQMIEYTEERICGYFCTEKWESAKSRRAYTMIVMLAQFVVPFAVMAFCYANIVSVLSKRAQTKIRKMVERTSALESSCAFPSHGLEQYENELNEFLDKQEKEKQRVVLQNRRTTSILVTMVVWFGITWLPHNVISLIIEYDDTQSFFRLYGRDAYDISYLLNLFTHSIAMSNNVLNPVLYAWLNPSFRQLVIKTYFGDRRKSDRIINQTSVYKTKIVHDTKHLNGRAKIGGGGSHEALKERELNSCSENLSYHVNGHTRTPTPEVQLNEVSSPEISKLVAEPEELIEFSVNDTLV
# [4] = target: NPR-1 mutants (Caenorhabditis elegans, UniProt Q18534, E180A); test: cAMP reporter gene assay; type: cell-based, C. elegans
# Chain of NPR-1 mutants (Caenorhabditis elegans, UniProt Q18534, E180A) (Q18534 whole entry E180A): as the sequence (Q18534 whole entry D316A) above, with E180A, A316D counted along it
# [5] = target: NPR-1 mutants (Caenorhabditis elegans, UniProt Q18534, E180D); test: cAMP reporter gene assay; type: cell-based, C. elegans
# Chain of NPR-1 mutants (Caenorhabditis elegans, UniProt Q18534, E180D) (Q18534 whole entry E180D): as the sequence (Q18534 whole entry D316A) above, with E180D, A316D counted along it
# [6] = target: NPR-1 mutants (Caenorhabditis elegans, UniProt Q18534, E180Q); test: cAMP reporter gene assay; type: cell-based, C. elegans
# Chain of NPR-1 mutants (Caenorhabditis elegans, UniProt Q18534, E180Q) (Q18534 whole entry E180Q): as the sequence (Q18534 whole entry D316A) above, with E180Q, A316D counted along it
# [7] = target: NPR-1 mutants (Caenorhabditis elegans, UniProt Q18534, E301A); test: cAMP reporter gene assay; type: cell-based, C. elegans
# Chain of NPR-1 mutants (Caenorhabditis elegans, UniProt Q18534, E301A) (Q18534 whole entry E301A): as the sequence (Q18534 whole entry D316A) above, with E301A, A316D counted along it
# [8] = target: NPR-1 mutants (Caenorhabditis elegans, UniProt Q18534, E301D); test: cAMP reporter gene assay; type: cell-based, C. elegans
# Chain of NPR-1 mutants (Caenorhabditis elegans, UniProt Q18534, E301D) (Q18534 whole entry E301D): as the sequence (Q18534 whole entry D316A) above, with E301D, A316D counted along it
# [9] = test system: NPR-1 mutants; test: cAMP reporter gene assay; type: cell-based, C. elegans; conditions: mutation of T^2.61 and Q^3.32 of NPR-1
# [10] = target: T1, NPR-11 (Caenorhabditis elegans, UniProt Q18179); test: cAMP reporter gene assay; type: cell-based, C. elegans
# T1 sequence (Q18179 1-402): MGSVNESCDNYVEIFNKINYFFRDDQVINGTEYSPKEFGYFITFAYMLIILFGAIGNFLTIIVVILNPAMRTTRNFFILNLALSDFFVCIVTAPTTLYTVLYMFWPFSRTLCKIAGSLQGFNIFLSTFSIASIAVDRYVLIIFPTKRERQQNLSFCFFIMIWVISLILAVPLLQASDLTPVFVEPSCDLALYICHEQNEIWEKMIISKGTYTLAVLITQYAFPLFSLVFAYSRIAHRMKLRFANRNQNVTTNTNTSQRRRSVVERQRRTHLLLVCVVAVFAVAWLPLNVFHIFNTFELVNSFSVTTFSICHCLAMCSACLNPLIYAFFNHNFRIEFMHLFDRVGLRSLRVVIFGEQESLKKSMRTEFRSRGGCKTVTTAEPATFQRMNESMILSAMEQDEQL
# [11] = target: NPR-11 mutants (Caenorhabditis elegans, UniProt Q18179, E196A); test: cAMP reporter gene assay; type: cell-based, C. elegans
# Chain of NPR-11 mutants (Caenorhabditis elegans, UniProt Q18179, E196A) (Q18179 whole entry E196A): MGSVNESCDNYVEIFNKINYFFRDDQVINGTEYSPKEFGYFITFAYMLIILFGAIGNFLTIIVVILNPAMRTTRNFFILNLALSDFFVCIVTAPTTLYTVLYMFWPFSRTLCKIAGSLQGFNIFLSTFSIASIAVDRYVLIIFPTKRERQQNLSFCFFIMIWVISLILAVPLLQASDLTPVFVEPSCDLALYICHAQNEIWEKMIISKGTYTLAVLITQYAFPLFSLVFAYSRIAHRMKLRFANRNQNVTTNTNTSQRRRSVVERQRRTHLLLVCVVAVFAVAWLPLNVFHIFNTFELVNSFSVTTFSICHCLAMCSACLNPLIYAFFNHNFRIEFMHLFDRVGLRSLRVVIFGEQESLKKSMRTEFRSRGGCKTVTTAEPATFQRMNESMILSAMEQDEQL
# [12] = target: NPR-11 mutants (Caenorhabditis elegans, UniProt Q18179, E196D); test: cAMP reporter gene assay; type: cell-based, C. elegans; conditions: NPR-11 E^5.23D
# Chain of NPR-11 mutants (Caenorhabditis elegans, UniProt Q18179, E196D) (Q18179 whole entry E196D): as the sequence (Q18179 whole entry E196A) above, with A196D counted along it
# [13] = target: NPR-11 mutants (Caenorhabditis elegans, UniProt Q18179, E196Q); test: cAMP reporter gene assay; type: cell-based, C. elegans
# Chain of NPR-11 mutants (Caenorhabditis elegans, UniProt Q18179, E196Q) (Q18179 whole entry E196Q): as the sequence (Q18179 whole entry E196A) above, with A196Q counted along it
# [14] = target: NPR-11 mutants (Caenorhabditis elegans, UniProt Q18179, E199A); test: cAMP reporter gene assay; type: cell-based, C. elegans; conditions: NPR-11 E^5.26A
# Chain of NPR-11 mutants (Caenorhabditis elegans, UniProt Q18179, E199A) (Q18179 whole entry E199A): as the sequence (Q18179 whole entry E196A) above, with A196E, E199A counted along it
# [15] = target: NPR-11 mutants (Caenorhabditis elegans, UniProt Q18179, F307A); test: cAMP reporter gene assay; type: cell-based, C. elegans; conditions: NPR-11 F^7.35A
# Chain of NPR-11 mutants (Caenorhabditis elegans, UniProt Q18179, F307A) (Q18179 whole entry F307A): as the sequence (Q18179 whole entry E196A) above, with A196E, F307A counted along it
# [16] = target: NPR-11 mutants (Caenorhabditis elegans, UniProt Q18179, Q119A); test: cAMP reporter gene assay; type: cell-based, C. elegans
# Chain of NPR-11 mutants (Caenorhabditis elegans, UniProt Q18179, Q119A) (Q18179 whole entry Q119A): as the sequence (Q18179 whole entry E196A) above, with Q119A, A196E counted along it
# [17] = target: NPR-11 mutants (Caenorhabditis elegans, UniProt Q18179, Q119H); test: cAMP reporter gene assay; type: cell-based, C. elegans; conditions: NPR-11 Q^3.32H
# Chain of NPR-11 mutants (Caenorhabditis elegans, UniProt Q18179, Q119H) (Q18179 whole entry Q119H): as the sequence (Q18179 whole entry E196A) above, with Q119H, A196E counted along it
# [18] = target: NPR-11 mutants (Caenorhabditis elegans, UniProt Q18179, T96A); test: cAMP reporter gene assay; type: cell-based, C. elegans; conditions: NPR-11 T^2.61A
# Chain of NPR-11 mutants (Caenorhabditis elegans, UniProt Q18179, T96A) (Q18179 whole entry T96A): as the sequence (Q18179 whole entry E196A) above, with T96A, A196E counted along it
# [19] = test system: NPR-11 mutants; test: cAMP reporter gene assay; type: cell-based, C. elegans
# [20] = target: T2, NPR-1 (Caenorhabditis elegans, UniProt Q18534); conditions: read-out: EC50 at NPR-1; ref [13]; cited from earlier work
# T2 sequence (Q18534 1-457): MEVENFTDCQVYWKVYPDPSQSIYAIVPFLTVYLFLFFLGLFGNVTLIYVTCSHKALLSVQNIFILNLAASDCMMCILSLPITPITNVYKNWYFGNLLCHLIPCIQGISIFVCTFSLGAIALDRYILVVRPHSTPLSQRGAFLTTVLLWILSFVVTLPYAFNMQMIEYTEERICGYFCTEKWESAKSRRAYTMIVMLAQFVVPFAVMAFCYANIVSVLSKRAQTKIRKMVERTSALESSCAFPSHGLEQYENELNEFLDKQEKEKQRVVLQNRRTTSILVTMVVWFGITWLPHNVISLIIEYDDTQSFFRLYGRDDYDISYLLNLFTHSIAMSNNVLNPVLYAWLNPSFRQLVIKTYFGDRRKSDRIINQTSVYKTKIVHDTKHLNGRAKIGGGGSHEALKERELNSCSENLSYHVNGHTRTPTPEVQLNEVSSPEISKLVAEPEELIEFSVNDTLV
# [21] = target: T2, NPR-1; test: cAMP reporter gene assay; type: cell-based, C. elegans; conditions: wild type NPR-1
# [22] = target: T1, NPR-11; test: NanoBRET displacement binding assay, Nluc-NPR-11 wild type; design: species or system C. elegans
# [23] = target: Q^3.32A variant of NPR-11 (Caenorhabditis elegans, UniProt Q18179, Q119A); test: NanoBRET displacement binding assay, Nluc-NPR-11 Q^3.32A variant; design: species or system C. elegans
# Chain of Q^3.32A variant of NPR-11 (Q18179 whole entry Q119A): as the sequence (Q18179 whole entry E196A) above, with Q119A, A196E counted along it
# Chain of NPR-1 mutants (Caenorhabditis elegans, UniProt Q18534, D315A) (Q18534 whole entry D315A): as the sequence (Q18534 whole entry D316A) above, with D315A, A316D counted along it
# Chain of NPR-1 mutants (Caenorhabditis elegans, UniProt Q18534, D303A/D304A/E301A) (Q18534 whole entry E301A/D303A/D304A): as the sequence (Q18534 whole entry D316A) above, with E301A, D303A, D304A, A316D counted along it
substance,measurement,setting,value
GLGPRPLRF-NH2 [FLP-21],EC50,[1],> 10000 nM
same,EC50 shift relative to wild type receptor,[2],< 5 fold
same,EC50 shift relative to wild type receptor,[3],< 5 fold
same,EC50,[4],> 10000 nM
same,EC50,[5],495 nM
same,EC50 shift relative to wild type receptor,[5]; NPR-1 E^5.27D,> 600 fold
same,EC50,[6],> 10000 nM
same,EC50,[7],20 nM
same,EC50 shift relative to wild type NPR-1,[7]; NPR-1 E^6.59A,25 fold
same,EC50,[8],0.13 nM
same,decrease of receptor activation relative to wild type receptor,[9],> 30 fold
same,reduced potency at NPR-11 compared to NPR-1,[10]; EC50 NPR-11 versus EC50 NPR-1,64 fold
same,EC50,[11],> 10000 nM
same,decreased potency relative to wild type receptor,[12],> 70 fold
same,EC50,[13],> 10000 nM
same,receptor activation in words,[14],inactive
same,receptor activation in words,[15],inactive
same,EC50,[16],0.1 nM
same,EC50 as fold of the wild type receptor,[16]; NPR-11 Q^3.32A,0.002 fold
same,gain of function relative to wild type receptor,[16]; NPR-11 Q^3.32A,> 500 fold
same,receptor activation in words,[17],did not affect activation
same,EC50 shift relative to wild type receptor,[18],4 fold
same,receptor activation in words,[19]; NPR-11 E^5.26 mutated to glutamine or aspartate,behaved like wild type
same,EC50 shift relative to wild type receptor,[19]; NPR-11 F^7.35 to histidine or leucine,> 200 fold
same,receptor activation in words,[19]; NPR-11 T^6.59 and N^6.58 alanine mutants,wild type-like activities
RGPSGPLRF-NH2 [FLP-15–2],EC50,[20],22 nM
"[L^7A]-FLP-21: FLP-21 variant, L^7 to alanine (GLGPRPARF-NH2)",EC50 shift (loss of potency) relative to wild type FLP-21,[21],497 fold
same,EC50 shift relative to wild type FLP-21,[10]; wild type NPR-11,10 fold
same,EC50 shift compared to FLP-21 at the same receptor mutant,[16]; NPR-11 Q^3.32A,300 fold
same,reduction of Ki relative to FLP-21,[22],less than 10 fold
same,reduction of Ki compared to FLP-21,[23],100 fold
